The source of these data is article PMC12337082 (Journal of Biochemical and Molecular Toxicology, 2025).

Where two headings read alike, the source gives them in different places.

The subject of data set [1] is MCF‐7. Particulars: MCF‐7, 24 h, monolayer cultures, ref Huang et al. (2017) [64], cited from earlier work.
The test system of data set [2] is MDA‐MB‐231. The conditions noted are these: MDA‐MB‐231, 24 h, monolayer cultures, ref Huang et al. (2017) [64], cited from earlier work.
The test system of data set [3] is cancer cell proliferation. More on the design: method as in PMID 27074576. The conditions noted are these: read-out: Effective range of cytotoxicity IC50 values in inhibiting cancer cell proliferation; cited from earlier work.
For data set [4], the system named is MCF‐7. Nature of the data set: Annexin V/PI staining, Tali image‐based cytometry, MCF‐7. The conditions noted are these: MCF‐7, 24 h. Format: cell-based, human. An excerpt: (§1) To assess apoptosis and cell death, cells were stained with Annexin V‐PI dyes (Tali Apoptosis Kit‐Annexin V Alexa Fluor 488 and PI‐, Molecular Probes A10788, Invitrogen) and quantified using Tali Image‐Based Cytometer (Invitrogen) and fluorescence microscopy (Olympus CKX41 Inverted Phase Contrast Fluorescence Microscope furbished with reflected fluorescence illuminator CKX‐RFA).
(§2) To assess whether our compounds produce their cytotoxic effects through induction of apoptosis, apoptosis was investigated using Annexin V/PI labeling and MMP methods (Figures 4A−C). In addition, by utilizing TALI image‐based cytometry and fluorescent microscopy, the number of cells was analyzed for different concentrations of agents (Table 4).

The subject of another data set is Leukemia. Details: method as in Nakamura et al. (2004) [60]. The conditions noted are these: 72 h, ref Nakamura et al. (2004) [60]; cited from earlier work.
Data set [5] concerns MCF‐7. Briefly: MTT cell viability assay, MCF‐7. Format: cell-based, human. Particulars: Homo sapiens, MCF7, MTT. An excerpt: (§3) MCF‐7, MDA‐MB‐231, and L‐929 mouse fibroblast cell lines were obtained from the American Type Culture Collection (ATCC, Manassas, Virginia, USA). MCF‐7 is a hormone‐responsive, differentiated mammary epithelium cell line with an ER+, PR+, and HER2‐ pattern (ATCC, HTB‐22). MDA‐MB‐231 is a triple‐negative differentiated mammary epithelium cell line (ATCC, HTB‐26). The L‐929 mouse fibroblast cell line is derived from the normal subcutaneous connective tissue of a mouse and is commonly used in cytotoxicity assays (ATCC, CCL‐1). All cell lines were cultured in DMEM medium (Dulbecco's Modified Eagle Medium, Gibco), supplemented with 10% fetal bovine serum (Gibco), 1% glutamine, and penicillin/streptomycin (Gibco) in a humidified atmosphere containing 5% CO2 at 37°C. Cell viability was tested using Trypan blue staining.
(§4) The MTT [3‐(4,5‐dimethylthiazol‐2‐yl)−2,5‐diphenyltetrazolium bromide] assay is a colorimetric assay for determining cell metabolic activity. In the MTT assay, the yellow dye MTT that dissolves in water is changed by mitochondrial reductase into a purple formazan that is non‐soluble. The water‐insoluble formazan produced is solubilized in a solubilization buffer, and absorbances are detected.
(§5) In 96‐well plates, the cells were cultivated at a density of 5 × 10^3 cells/well using 100 µL medium. […] 10 μL of the MTT labeling reagent (final concentration 0.5 mg/mL) were added to each well at the end of the incubation periods, and the wells were incubated for an additional 4 h. Next, each well received 100 μL of solubilization buffer (10% SDS in 0.01 M HCl) and was overnight incubated, and the absorbance of formazan products was evaluated at 550 nm using a multi‐mode microplate reader (Synergy H1, Biotech Instruments Inc., Vermont, USA). The results were normalized relative to the absorbances of calculated percent concentrations of DMSO. All tests involved three replicates with three independent experiments.
(§6) All statistical evaluations, including t‐tests and IC50 values, were calculated using the GraphPad Prism software tool (v6.0, GraphPad Software Inc., San Diego, USA). Statistical significance was defined as p ˂ 0.05 (*p < 0.05, **p < 0.01, ***p < 0.001, ****p < 0.0001).
Background: Formazan colour is commonly taken as a measure of viable cells.

Data set [6] concerns MCF‐7, MDA‐MB‐231, and L‐929 cells. Nature of the data set: Mitochondrial membrane potential (JC‐1) apoptosis assay, statements over all cell lines. Format: cell-based. Particulars: MMP assay, similar levels for all cells including L‐929. How it is done: Apoptosis was also investigated by evaluating mitochondrial membrane potential changes (MMP assay). MCF‐7, MDA‐MB‐231, and L‐929 cells were stained with JC‐1 dye according to the manufacturer's protocols (JC‐1 MMP Assay Kit, KA1324, Abnova). The apoptotic to healthy cell ratio was calculated using absorbances collected from two different fluorescence channels (535/595 for healthy cells, 485/535 for apoptotic cells) (Synergy H1, Biotech Instruments Inc., Vermont, USA).

For data set [7], the system named is MDA‐MB‐231. Nature of the data set: Annexin V/PI staining, Tali image‐based cytometry, MDA‐MB‐231. Format: cell-based, human. The conditions noted are these: MDA‐MB‐231, 24 h.
Source text: as §1, §2

For data set [8], the system named is L‐929 mouse fibroblast cell line. Briefly: MTT cell viability assay, L‐929 control fibroblasts. Type of data set: cell-based. The conditions noted are these: Mus musculus.
Source text: as §3, §4, §5, §6

Data set [9] concerns PGE2 release. Nature of the data set: PGE2 ELISA, MCF‐7. Type of data set: cell-based, human. The conditions noted are these: MCF‐7, 0.5 mM, 24 h. How it is done:
(§7) PGE2 ELISA kit (ENZO, ADI‐900‐001) was used to determine prostaglandin synthesis levels. MCF‐7 and MDA‐MB‐231 breast cancer cells were cultured at a density of 1 × 10^6 cells/well in a 6‐well culture dish. […] Following 24 h of incubation, the medium was replaced with a fresh one, 10 µM arachidonic acid was added, and it was further incubated for 1 h. The PGE2 levels were determined according to the kit protocol.
A general note: An ELISA detects its analyte on a solid surface through an enzyme-linked reagent.

Data set [10] concerns MCF‐7, MDA‐MB‐231, and L‐929. Briefly: MTT cell viability assay, statements over all cell lines. Format: cell-based.
Source text: as §3, §4, §5
All statistical evaluations, including t‐tests and IC50 values, were calculated using the GraphPad Prism software tool (v6.0, GraphPad Software Inc., San Diego, USA). […]

For data set [11], the system named is MDA‐MB‐231. Briefly: MTT cell viability assay, MDA‐MB‐231. Type of data set: cell-based, human. Particulars: Homo sapiens, MTT.
Source text: as §3, §4, §5, §6

For data set [12], the system named is PGE2 release. Briefly: PGE2 ELISA, MDA‐MB‐231. Type of data set: cell-based, human. The conditions noted are these: MDA‐MB‐231, 0.5 mM, 24 h. How it is done:
as §7

The test system of a further data set is SSC‐9 skin cancer. More on the design: method as in Abo Aasy et al. (2019) [62]. The conditions noted are these: 24 h, ref Abo Aasy et al. (2019) [62]; cited from earlier work.

As to `Cc1ccc(-c2cc(C(F)(F)F)nn2-c2ccc(S(N)(=O)=O)cc2)cc1` [Celecoxib], the IC50 was 89 µM with MCF‐7 [1]; 40.1 µM in the data set on MCF‐7 [1] (listed as celecoxib); 40.1 µM in the data set on MDA‐MB‐231 [2]; 89 µM in the data set with MDA‐MB‐231 [2] (listed as celecoxib); 25 to 100 µM in data set [3].
Turning to `CCc1cccc2c3c([nH]c12)C(CC)(CC(=O)O)OCC3` (stereo not drawn) [Etodolac, 2‐(1,8‐diethyl‐1,3,4‐tetrahydropyrano [3,4‐b]indol‐1‐yl) acetic acid, reference compound], the Apoptotic cells with MCF‐7 [4] (100 µM) was 1%; in the data set with MCF‐7 [4] (250 µM) it was 2%; in the data set with MCF‐7 [4] (500 µM) it was 7%; in the data set on MCF‐7 [4] (1000 µM) it was 5%; in the data set with MDA‐MB‐231 [7] (100 µM), 1%; with MDA‐MB‐231 [7] (250 µM) it was 1%. Further, the figures for the Apoptotic cells in the data set with MDA‐MB‐231 [7] (500 µM) and with MDA‐MB‐231 [7] (1000 µM) were 6% and 11%, respectively. The Dead cells in the data set on MCF‐7 [4] (100 µM) turned out to be 5%; in the data set on MCF‐7 [4] (250 µM), 6%; in the data set on MCF‐7 [4] (500 µM), 9%; in the data set on MCF‐7 [4] (1000 µM) it was 8%; in the data set on MDA‐MB‐231 [7] (100 µM), 4%; in the data set on MDA‐MB‐231 [7] (250 µM), 5%. The Dead cells was 10% in the data set on MDA‐MB‐231 [7] (500 µM) and 13% in the data set on MDA‐MB‐231 [7] (1000 µM). For the same compound, the Live cells in the data set with MCF‐7 [4] (100 µM) is recorded as 94%; in the data set with MCF‐7 [4] (250 µM), 92%; in the data set on MCF‐7 [4] (500 µM), 84%; in the data set with MCF‐7 [4] (1000 µM) it was 87%; in the data set on MDA‐MB‐231 [7] (100 µM), 95%; in the data set on MDA‐MB‐231 [7] (250 µM) it was 94%. The figures for the Live cells with MDA‐MB‐231 [7] (500 µM) and in the data set with MDA‐MB‐231 [7] (1000 µM) were 84% and 76%, respectively. Moreover, the IC50 in the data set with Leukemia was 50 to 100 µM; in the data set with MCF‐7 [5] (MCF‐7, 24 h), 750 ± 4.2 µM; in the data set on MCF‐7 [5] (MCF‐7, 48 h), 731 ± 1.37 µM; with MCF‐7 [5] (MCF‐7, 72 h), 555 ± 2.42 µM; in data set [8] (L929, 24 h, L‐929, 24 h) it was 735 ± 3.7 µM; in data set [8] (L929, 48 h, L‐929, 48 h), 751 ± 9.5 µM. Besides, the IC50 in [8] (L929, 72 h, L‐929, 72 h) is 622 ± 4.7 µM; in [10] (read-out: IC50 range), 500 to 1000 µM; in the data set on MDA‐MB‐231 [11] (MDA-MB-231, 24 h, MDA‐MB‐231, 24 h), 740 ± 1.65 µM; in the data set on MDA‐MB‐231 [11] (MDA-MB-231, 48 h, MDA‐MB‐231, 48 h), 699 ± 4.61 µM; with MDA‐MB‐231 [11] (MDA-MB-231, 72 h, MDA‐MB‐231, 72 h), 578 ± 3.65 µM; in the data set with SSC‐9 skin cancer it was 983 µM. In addition, the “Concentration after which apoptotic increases became detectable” value in [6] is 0.5−1.0 mM. Further, the “Inhibition of PGE2 release” value in the data set with PGE2 release [9] was determined as 57%; in the data set on PGE2 release [12] it was 38%. For the same compound, the “Concentration at which viability of the cells was reduced” value in data set [10] (all cell lines including healthy controls) is listed as 0.2−0.5 mM.
